Laboratory results published in US20080153792A1, “Drug Identification and Treatment Method” (priority 2006, published 2008).
“Also recorded” adds a separate entry of the source. Where two headings read alike, the source gives them in different places.

Assays:
NF-κB = assay: NF-κB-bla THP-1 β-lactamase reporter assay; format: cell-based, human
[1] = tested on: CD1 male mice, carrageenan-λ induced pleurisy; assay: carrageenan-λ induced lung (pleural cavity) inflammation in mice; format: in vivo, mouse; conditions: for number of neutrophils relative to untreated carrageenan-λ control (100%): 4 h after carrageenan
MG-63 cells = assay: reversal of glucocorticoid effects in MG-63 osteosarcoma cells; format: cell-based, human
female SJL mice, EAE = assay: experimental autoimmune encephalomyelitis (EAE), PLP-induced, Example 23; format: in vivo, mouse; conditions: for course of EAE compared to vehicle-treated mice: 0.1 mg q.d. po from clinical onset; for mean cumulative score, treatment period (day 1 to 30): vehicle 24.8±7.8; for mean cumulative score, follow-up period (day 31 to day 54): vehicle 22.7±15.8
[2] = metabolic stability in liver microsomes: human; conditions: 10 min
Method: (§1) The protocol was performed as follows. […] (2) Set up samples as follows. […] (4) The internal standard/acetonitrile solution.

[3] = metabolic stability in liver microsomes: mouse; conditions: 10 min
Method: as §1

[4] = Homo sapiens, THP-1, read-out: IC50, this protocol
[5] = anti-inflammatory activity in this protocol, read-out: IC50
[6] = 0.1 mg q.d. po from clinical onset to day 30
[7] = Homo sapiens, THP-1, read-out: IC50 for inhibition of NF-κB activation, after LPS stimulation, 50% of the maximum inhibition the compound can induce, averages of 2-4 assays
[8] = after LPS stimulation, 50% of the maximum inhibition the compound can induce, averages of 2-4 assays, read-out: IC50 for inhibition of NF-κB activation
[9] = compounds increased NF-κB activity, read-out: IC50 of compounds that increased NF-κB activity

C[C@]12CC[C@H]3[C@@H](CCC4C[C@H](O)CC[C@@]43C)[C@@H]1C[C@@H](O)[C@@H]2O (stereo partly drawn) [3α,16α,17β-trihydroxyandrostane]
IC50 (NF-κB; [4]): 6900 nM

C[C@]12CC[C@H]3[C@@H](CCC4C[C@H](O)CC[C@@]43C)[C@@H]1C[C@H](O)[C@@H]2O (stereo partly drawn) [3α,16β,17β-trihydroxyandrostane]
number of neutrophils relative to untreated carrageenan-λ control (100%) ([1]; 0.001 mg s.c. 24 h and 1 h before carrageenan-λ): 95% | number of neutrophils relative to untreated carrageenan-λ control (100%) ([1]; 0.01 mg s.c. 24 h and 1 h before carrageenan-λ): 50% | number of neutrophils in the pleura ([1]; 0.1 mg and 0.01 mg doses s.c.): significant reduction | number of neutrophils relative to untreated carrageenan-λ control (100%) ([1]; 0.1 mg s.c. 24 h and 1 h before carrageenan-λ): 42% | IC50 (NF-κB; [4]): 19000 nM

C[C@]12CC[C@H]3[C@@H](CCC4=C[C@H](O)CC[C@@]43C)[C@@H]1CC[C@@H]2O [3α,17β-dihydroxyandrost-4-ene]
dexamethasone induced 11β-HSD mRNA (MG-63 cells; similar protocols): decrease | reversal of dexamethasone-induced suppression of IL-8 and IL-6 (MG-63 cells; similar protocols): statistically significant reversal

CC12CCC(O)(C(F)(F)C(F)(F)F)C=C1CCC1C2CCC2(C)C(O)CCC12 (stereo not drawn) [3α-pentafluoroethylandrost-4-ene-3β,17β-diol]
IC50 (NF-κB; [5]): 3.1 nM

C[C@]12CC[C@H]3[C@@H](CC=C4C[C@](O)(C(F)(F)C(F)(F)F)CC[C@@]43C)[C@@H]1CC[C@@H]2O [3α-pentafluoroethylandrost-5-ene-3β,17β-diol]
IC50 (NF-κB; [5]): 17 nM | maximum NF-κB inhibition (NF-κB; this protocol): 50%

C[C@]12CC[C@H]3[C@@H](CC=C4C[C@](O)(C(F)(F)F)CC[C@@]43C)[C@@H]1CC[C@@H]2O [3α-trifluoromethylandrost-5-ene-3β,17β-diol]
course of EAE compared to vehicle-treated mice (female SJL mice, EAE): significantly improved course of EAE | mean cumulative score, treatment period (day 1 to 30) (female SJL mice, EAE; [6]): 11.2±4.8 | mean cumulative score, follow-up period (day 31 to day 54) (female SJL mice, EAE; after end of treatment): 10.8±10.3

C[C@]12CC[C@H]3[C@@H]([C@H](O)C=C4C[C@@H](O)CC[C@@]43C)[C@@H]1CC[C@@H]2O [3β,7α,17β-trihydroxyandrost-5-ene]
IC50 (NF-κB; [7]): > 10000 nM

C[C@]12C[C@H](O)[C@H]3[C@@H]([C@@H](O)C=C4C[C@@H](O)CC[C@@]43C)[C@@H]1CC[C@@H]2O [3β,7β,11β,17β-tetrahydroxyandrost-5-ene]
IC50 (NF-κB; [7]): > 10000 nM

C[C@]12CC[C@H](O)CC1=C[C@H](O)[C@@H]1[C@@H]2CC[C@@]2(C)[C@H]1CC[C@]2(C)O [3β,7β,17β-trihydroxy-17α-methylandrost-5-ene]
osteoprotegerin levels in the presence of 30 nM dexamethasone (MG-63 cells; 10 nM compound): normal osteoprotegerin levels

CC12CCC(O)CC1=CC(O)C1C2CCC2(C)C1CCC2(O)C(F)(F)F (stereo not drawn) [3β,7β,17β-trihydroxy-17α-trifluoromethylandrost-5-ene]
IC50 (NF-κB; [8]): > 10000 nM | osteoprotegerin levels in the presence of 30 nM dexamethasone (MG-63 cells; 1 μM compound): normal or basal osteoprotegerin levels

C[C@]12CC[C@H](O)CC1=CC[C@@H]1[C@@H]2[C@H](O)C[C@]2(C)C(=O)CC[C@@H]12 [3β,11α-dihydroxy-17-oxoandrost-5-ene]
IC50 (NF-κB; [7]): > 10000 nM

C[C@]12CC[C@H]3[C@@H](CC=C4C[C@@H](O)CC[C@@]43C)[C@@H]1CC[C@H]2O [3β,17α-dihydroxyandrost-5-ene]
IC50 (NF-κB; [4]): > 10000 nM

C[C@@]1(O)CC[C@@]2(C)[C@@H](CC[C@@H]3[C@@H]2CC[C@@]2(C)[C@H]3CC[C@]2(C)O)C1 [3β,17α-dimethylandrostane-3α,17β-diol]
IC50 (NF-κB; [9]): 40 nM

CC12CCC(O)CC1=CC(=O)C1C2CCC2(C)C1CCC2(C)O (stereo not drawn) [3β,17β-dihydroxy-7-oxo-17α-methylandrost-5-ene]
IC50 (NF-κB; [8]): > 10000 nM | osteoprotegerin levels in the presence of 30 nM dexamethasone (MG-63 cells; 100 nM compound): increased osteoprotegerin levels

CC(=O)O[C@H]1CC[C@@]2(C)C(=C[C@H](O)[C@H]3[C@@H]4CC[C@H](O)[C@@]4(C)CC(=O)[C@@H]32)C1 [3β-acetoxy-7β,17β-dihydroxy-11-oxoandrost-5-ene]
IC50 (NF-κB; [4]): 1000 nM | maximum NF-κB inhibition (NF-κB; this protocol): 65%

C[C@]12CC[C@H]3[C@@H](CCC4C[C@@H](C(=O)CN)CC[C@@]43C)[C@@H]1CC[C@@H]2O (stereo partly drawn) [3β-glycylandrostane-17β-ol]
IC50 (NF-κB; Homo sapiens, THP-1, read-out: IC50, anti-inflammatory activity in this protocol): 1 nM

C[C@]12CC[C@H](O)CC1CC(=O)[C@@H]1[C@@H]2CC[C@]2(C)C(=O)CC[C@@H]12 (stereo partly drawn) [3β-hydroxyandrostane-7,17-dione]
IC50 (NF-κB; [4]): > 10000 nM

C[C@]12CC[C@H](O)C[C@@H]1CC[C@@H]1[C@@H]2CC[C@]2(C)[C@@H](O)C(=NO)C[C@@H]12 [5α-androstane-3β,17β-diol-16-oxime]
course of EAE compared to vehicle-treated mice (female SJL mice, EAE): very similar to that observed in the vehicle-treated mice

CC(=O)O[C@@H]1C[C@H]2[C@@H]3[C@@H](O)C=C4C[C@@H](O)CC[C@]4(C)[C@H]3CC[C@]2(C)[C@H]1O [16α-acetoxy-3β,7β,17β-trihydroxyandrost-5-ene]
IC50 (NF-κB; Homo sapiens, THP-1, after LPS stimulation, 50% of the maximum inhibition the compound can induce, averages of 2-4 assays, read-out: IC50 for inhibition of NF-κB activation): > 10000 nM

C[C@]12CC[C@H]3[C@@H](CC=C4C[C@@H](O)CC[C@@]43C)[C@@H]1C[C@@H](Br)[C@@H]2O [16α-bromo-3β,17β-dihydroxyandrost-5-ene]
IC50 (NF-κB; [4]): > 10000 nM

C[C@]12CCCCC1=CC[C@@H]1[C@@H]2CC[C@]2(C)C(=O)[C@H](F)C[C@@H]12 [16α-fluoroandrost-5-ene-17-one]
IC50 (NF-κB; [4]): 30000 nM

C[C@]12CCCCC1CC[C@@H]1[C@@H]2CC[C@]2(C)C(=O)[C@H](F)C[C@@H]12 (stereo partly drawn) [16α-fluoroandrostane-17-one]
IC50 (NF-κB; [4]): > 10000 nM

C[C@]12CC[C@H](O)CC1=CC[C@@H]1[C@@H]2CC[C@]2(C)C(=O)[C@@H](Br)C[C@@H]12 [16β-bromo-3β-hydroxyandrost-5-ene-17-one]
IC50 (NF-κB; [4]): > 10000 nM

C[C@]12CC[C@H](O)C[C@@H]1CC[C@@H]1[C@@H]2CC[C@]2(C)C(=O)[C@@H](Br)C[C@@H]12 [16β-bromoepiandrosterone]
maximum NF-κB inhibition (NF-κB; this protocol): 100%

C[C@]12CCCCC1=C[C@H](O)[C@@H]1[C@@H]2CC[C@]2(C)C(=O)[C@@H](F)C[C@@H]12 [16β-fluoroandrost-5-ene-7β-ol-17-one]
IC50 (NF-κB; [5]): 1.5 nM

C#C[C@]1(O)CC[C@H]2[C@@H]3CCC4=CC(=O)CC[C@]4(C)[C@H]3CC[C@@]21C [17α-ethynylandrost-4-ene-3-one-17β-ol]
maximum NF-κB inhibition (NF-κB; this protocol): 80% | IC50 (NF-κB; this protocol, read-out: IC50): 2900 nM

C[C@]12CC[C@H](O)CC1=CC[C@@H]1[C@@H]2CC[C@@]2(C)[C@H]1CC[C@@]2(O)C(F)(F)F [17α-trifluoromethylandrost-5-ene-3β,17β-diol]
course of EAE compared to vehicle-treated mice (female SJL mice, EAE): significantly improved course of EAE

CC12CCC(O)CC1CCC1C2CCC2(C)C1CCC2(O)C(F)(F)F (stereo not drawn) [17α-trifluoromethylandrostane-3α,17β-diol]
IC50 (NF-κB; [5]): 190 nM

C#C[C@@]1(O)CC[C@H]2[C@@H]3[C@@H](O)C=C4C[C@@H](O)CC[C@]4(C)[C@H]3CC[C@@]21C [17β-ethynylandrost-5-ene-3β,7β,17α-triol]
EAE incidence at the end of the treatment period (female SJL mice, EAE; 0.1 mg q.d. po): 57.1% | course of EAE compared to vehicle-treated mice (female SJL mice, EAE): trend toward reduced cumulative score and duration | duration of the disease (female SJL mice, EAE; 0.1 mg q.d. po from clinical onset to day 30, vehicle 12.3±4.3): 7 ± 7.9 days | mean cumulative score, treatment period (day 1 to 30) (female SJL mice, EAE; [6]): 14.9±17.6 | EAE incidence at the end of the follow-up period (female SJL mice, EAE; after end of treatment): 85.7% | mean cumulative score, follow-up period (day 31 to day 54) (female SJL mice, EAE; after end of treatment): 18.4±20.6

C[C@]12CC[C@H]3[C@@H](CCC4C[C@@H](O)CC[C@@]43C)[C@@H]1CC[C@@H]2C(=O)CN (stereo partly drawn) [17β-glycylandrostane-3β-ol]
IC50 (NF-κB; [4]): 420 nM

Cc1cc(C)c(/C=C2\C(=O)Nc3ccccc32)[nH]1 [SU5416, Z-3-[(2,4-dimethylpyrrol-5-yl)methylidenyl]-2-indolinone, reference compound]
course of EAE compared to vehicle-treated mice (female SJL mice, EAE): very similar to that observed in the vehicle-treated mice; also recorded: ineffective | mean cumulative score, treatment period (day 1 to 30) (female SJL mice, EAE; [6]): 25.5±8.9 | mean cumulative score, follow-up period (day 31 to day 54) (female SJL mice, EAE; after end of treatment): 35.5±13.2

C[C@]12CC[C@H]3[C@@H]([C@H](O)C=C4C[C@H](O)CC[C@@]43C)[C@@H]1C[C@@H](O)[C@@H]2O [androst-5-ene-3α,7α,16α,17β-tetrol]
parent remaining human microsomes [2]: 100% (10 min) | parent remaining mouse microsomes [3]: 100% (10 min)

C[C@]12CC[C@H]3[C@@H](CC=C4C[C@H](O)CC[C@@]43C)[C@@H]1CC[C@@H]2O [androst-5-ene-3α,17β-diol]
IC50 (NF-κB; [4]): > 10000 nM

C[C@]12CC[C@H](O)CC1=C[C@@H](O)[C@@H]1[C@@H]2CC[C@]2(C)C(=O)[C@H](O)C[C@@H]12 [androst-5-ene-3β,7α,16α-triol-17-one]
NF-κB activity compared to control cells (NF-κB; compound increased NF-κB activity): 140% | IC50 (NF-κB; [9]): 1.3 nM

C[C@]12CC[C@H]3[C@@H](C(=NO)C=C4C[C@@H](O)CC[C@@]43C)[C@@H]1CC[C@@H]2O [androst-5-ene-3β,17β-diol-7-oxime]
reversal of the decrease in osteoprotegerin in the presence of 30 nM dexamethasone (MG-63 cells; concentration not given): partially reversed

C[C@]12C[C@H](O)[C@H]3[C@@H](CC=C4C[C@@H](O)CC[C@@]43C)[C@@H]1CC[C@@H]2O [androst-5-ene-3β, 11β,17β-triol]
IC50 (NF-κB; [4]): > 10000 nM

C[C@]12CC[C@H]3[C@@H](CC=C4C[C@@H](O)CC[C@@]43C)[C@@H]1CC[C@@H]2OC(=O)CCC(=O)O [androst-5-ene-3β-ol-17β-succinyl ester]
IC50 (NF-κB; [5]): 0.2 nM

C[C@]12CC[C@H](O)CC1CC[C@@H]1[C@@H]2CC[C@]2(C)C(=NO)[C@@H](O)C[C@@H]12 (stereo partly drawn) [androstane-3β,16β-diol-17-oxime]
IC50 (NF-κB; this protocol, read-out: IC50): 1900 nM

TNFα
EC50 for activation of NF-κB (NF-κB; positive control assays, 1 hour β-lactamase substrate incubation): 0.20 ng/mL
